In patent publication US9101566B2, “Fermentation product of cereal plant-derived material and immunomodulator” (KIRIN HOLDINGS KABUSHIKI KAISHA, priority 2009, dated 2015):

Key:
[1] = system: multiple sclerosis model mouse (Experimental Autoimmune Encephalomyelitic; EAE); assay: Multiple sclerosis model mouse (EAE): disease score (Example 15); assay type: in vivo; conditions: 10 μg/animal i.p. once a day, days 7 to 18; vs vehicle group
Procedure: Eight-week-old female C57BL/6 mice were divided into the following 2 groups at 5 mice per group:
(2) 14-DHE Group (10 μg/Animal)
(§1) On day 0, the 35-55 peptide (MOG35-55, Operon), a glycoprotein of myelin oligodendroglial cells, as an antigen was mixed with complete Freund's adjuvant (CFA, Difco) and then the mixture was subcutaneously administered at a dose of 200 μg/animal. Subsequently, pertussis toxin (Wako Pure Chemical Industries, Japan) was intraperitoneally administered at a dose of 200 ng/animal on day 1 and day 3, thereby inducing the onset of multiple sclerosis. During days 7 to 18, 14-DHE was intraperitoneally administered at a dose of 10 μg/animal once a day. To the vehicle group, the following solvent for 14-DHE was administered: 10% ethanol (Wako Pure Chemical Industries, Japan)/10% Cremophor (Wako Pure Chemical Industries, Japan)/80% PBS (Takara, Japan).
During the experimental period (i.e., during days 0 to 20), disease score was determined based on the following criteria:
Score 1: Unable to freely move tail
Score 2: Unable to normally walk
Score 3: Paralysis of one hindlimb
Score 4: Paralysis of both hindlimbs
Score 5: Paralysis of forelimbs and hindlimbs

[2] = system: mDCs (CD11b+CD11c+B220-) of EAE mice; assay: EAE model, day 11 autopsy: mDC activation markers; assay type: in vivo, mouse; conditions: autopsy on day 11
Procedure: as §1, with “Japan). Mice were autopsied on day 11 (when inflammation was thought to take place in vivo) to obtain biochemical data. […] A gate was set on mDCs, which are CD11b^+CD11c^+B220^− cells, and I-A/I-E (MHC class II), CD86, and CD80 were measured as activation markers.” for “Japan).”

[3] = system: C57BL/6 mDCs co-cultured with BALB/c CD8+ T cells; assay: CD8+ Treg differentiation-inducing capacity of DCs treated with 14-DHE (Example 12); assay type: cell-based, mouse; conditions: mDC:CD8+ T 1:10; 0.5 ng/mL TGF-α 3; 5 days
Procedure: In a manner similar to Example 11, mDCs were sorted from DCs induced from C57BL/6 mouse bone marrow cells in the presence of 14-DHE and Flt-3L. Next, CD8^+ T cells were isolated from the BALB/c mouse spleen using the CD8α^+ T cell isolation kit (mouse) (Miltenyi Biotec). Cells were mixed at a ratio of mDC:CD8^+ T cell of 1:10 and then cultured in the medium containing 0.5 ng/mL […] for 5 days. Five days later, the cells were recovered and then the proportion of CD25^+FoxP3^+ cells in CD8^+ T cells was determined using a flow cytometer. Prior to flow cytometry, cell staining was performed using CD8α-PE-Cy7, CD25-APC-Cy7, and CD3e-PerCP, cell membrane permeabilization treatment was performed using the FoxP3 staining buffer set (eBioscience), and then FoxP3-PE staining was performed.

[4] = system: regional lymph node cells and spleen cells of EAE mice; assay: EAE model, day 11 autopsy: inflammatory cytokines produced by lymph node and spleen cells (ELISA); assay type: in vivo, mouse
Procedure: as §1
Mice were autopsied on day 11 (when inflammation was thought to take place in vivo) to obtain biochemical data.
(1) Spleen cells were prepared and then cultured for 7 days with or without re-stimulation with 2 μM MOG. Culture supernatants were recovered. The amounts of produced IFN-γ and TNF-α were measured by ELISA.

[5] = system: C57BL/6 mDCs co-cultured with OT-II mouse naive CD4+ T cells; assay: Cytokine profile of CD4+ T cells induced by DCs treated with 14-DHE, antigen-specific T cell reaction (Example 11); assay type: cell-based; conditions: 0.1 μM OVA323-339 peptide, day 4, vs control mDCs
Procedure: mDCs were prepared by the method same as that in the MLR experiment. Naive CD4^+ T cells were prepared from OT-II mice (Charles River) in which TCR of CD4^+ T cells is specific for OVA323-339 epitope on the C57BL/6 background. Mixed culture was performed at a ratio of mDC:CD4^+ T cell of 1:5 in the presence of 0.1 μM OVA323-339 peptide. The culture supernatant was recovered on day 4 of culture, and then TNF-α, IFN-γ, IL-6, IL-10, and IL-17 were measured by ELISA.

[6] = system: mDCs treated with 14-DHE co-cultured with OVA-specific naive CD4+ T cells; assay: Antigen-specific Treg-inducing capacity of DCs treated with 14-DHE (Example 10); assay type: cell-based, mouse
Procedure: Various DCs were prepared similarly to (A). Next, naive CD4^+ T cells were sorted from DO11.10 mice (Charles River) having OVA-specific TCR, DCs were mixed with the sorted cells at DC:CD4^+ T=1:10 (the number of cells), and then the cells were co-cultured. At this time, the medium was supplemented with 0.5 ng/mL TGF-β1 and 0.1 μM OVA323-339 peptide and then culture was performed for 5 days. Subsequently, Treg generation efficiency was determined as in (A) above.
In a manner similar to that in Example 5, the Treg-inducing activity of mDCs treated with 14-DHE was measured. Similar measurement was also performed using DCs not treated with 14-DHE as a control.

[7] = re-stimulation with MOG antigen

SMILES: CC(C)[C@@H](C)/C=C/[C@@H](C)[C@H]1CC=C2C3=CC=C4C[C@@H](O)CC[C@]4(C)[C@H]3CC[C@@]21C [Sample 14-DHE, ergosta-5,7,14,22-tetraen-3β-ol]
- accumulated disease score [1]: decreases were confirmed
- incidence [1]: decreases were confirmed
- maximum score [1]: decreases were confirmed
- onset [1]: delayed onset
- CD80 on mDCs, lymph node [2]: significant decrease
- CD86 on mDCs, lymph node [2]: decreasing trend
- I-A/I-E (MHC class II) on mDCs, lymph node [2]: decreasing trend
- I-A/I-E on mDCs, spinal cord [2]: significant decrease
- induction of CD8+CD25+FoxP3+ cells compared with control mDCs [3]: ≥ 3 times
- IFN-γ production from regional lymph node cells ([4]; not re-stimulated with MOG antigen): significantly decrease
- TNF-α production from spleen cells ([4]; re-stimulated with MOG antigen): decreased
- IFN-γ production from regional lymph node cells [4, 7]: decreasing trend
- IFN-γ production from spleen cells [4, 7]: decreasing trend
- TNF-α production from regional lymph node cells ([4]; with or without re-stimulation with MOG antigen): significantly decreased
- IFN-γ production (ELISA) [5]: no statistically significant difference was observed
- IL-6 production (ELISA) [5]: a significant decrease
- IL-10 production (ELISA) [5]: significant increase
- IL-17 production (ELISA) [5]: no statistically significant difference was observed
- TNF-α production (ELISA) [5]: a significant decrease
- generation of Treg compared with the control [6]: about 2 times
